Data published in patent publication US7078487B2, “PTH1R receptors” (The General Hospital Corporation, priority 1998, dated 2006).

Columns and labels:
[1] = test system: zPTH1R; experiment: Agonist-stimulated cAMP accumulation, COS-7 cells expressing zPTH1R; format: cell-based, zebrafish; details: for cAMP Maximum / EC50: intact COS-7 cells, room temperature
Method: (§1) Plasmid DNAs encoding the two full length ZPTH1Rs (#25 and #29) and the zPTH3R were transiently expressed in COS-7 cells. COS-7 African green monkey kidney cells (approximately 200,000 cells/well in a 24-well plate) were cultured and transfected with plasmid DNA (200 ng/well) as described (Rubin et al., (1998)). After transfection, cells were cultured for 72 hrs at 37° with daily exchanges of medium, followed by an additional 24 hrs at 33° (Gardella et al., (1997)) until they were functionally evaluated after 96 hrs.
(§2) In order to assess agonist-dependent cAMP accumulation of COS-7 cells expressing zPTH1R and zPTH3R, experiments were done in 24-well plates with COS-7 cells stimulated in the presence of increasing concentrations of either PTH or PTHrP, and intracellular cAMP was determined as described (Bergiwtz et al.,(1998)). EC50 values were determined as previously described (Gardella et al., (1996)).
(§3) Competitive binding and cAMP stimulation assays were performed at room temperature with intact COS-7 cells that expressed either the zPTH1R or the zPTH3R, as described in Materials and Methods. Homologous binding reactions utilized ^125I-rPTH with unlabeled rPTH, and ^125I-hPTHrP with unlabeled hPTHrP, heterologous binding reactions utilized ^125I-[…] with unlabeled rPTH. EC50 and IC50 values were determined as previously described (Gardella et al., 1996). Values are the mean±SEM of at least three independent transfections. ND, not determined.

[2] = test system: zPTH1R; experiment: Total inositol phosphate accumulation, COS-7 cells expressing zPTH1R; format: cell-based, zebrafish; details: ligand 10^−6 M, 30 mM LiCl
Method: (§4) In order to determine total inositol phosphate turnover for COS-7 cells expressing zPTH1R, zPTH3R, and hPTH1R, cells were grown in 6-well plates with COS-7 cells (approximately 200,00 cells/well transfected with either 1 μg/well of zPTH1R, zPTH3R, or hPTH 1R (stina)). Cells were cultured for 3 days inDMEM/7% fetal bovine serum (FBS) at 37° C. with daily exchanges of medium. The cells were then preloaded with 3 μCi/ml myo-[^3H]inositol (New England Nuclear, Boston, Mass.) in inositol-free DMEM (Gibco)/7% FBS (33° C. for 18 hr). The following day, plates were rinsed and then incubated with 10^−6 M of either PTH, PTHrP in DMEM/0.1% BSA, or with DMEM/0.1% BSA alone (40 min at 37° C.), in the presence of 30 mM LiCl. Total inositol phosphate (IPs) were isolated by anion exchange column chromatography as previously described (Iida-Klein et al., (1994 and 1995)), and 1 ml of the eluate (⅛th of total) was counted in a liquid scintillation counter (model LS 60001C, Beckman, Fullerton, Calif.). All points represent mean±S.E.M. of two to three replicates from two or more independent experiments.

[3] = test system: zPTH3R; experiment: Total inositol phosphate accumulation, COS-7 cells expressing zPTH3R; format: cell-based, zebrafish; details: ligand 10^−6 M, 30 mM LiCl
Method: as §4

[4] = test system: zPTH3R; experiment: Agonist-stimulated cAMP accumulation, COS-7 cells expressing zPTH3R; format: cell-based, zebrafish
Method: as §1, §2, §3

[5] = test system: zPTH3R; experiment: Competitive radioligand binding, COS-7 cells expressing zPTH3R; design: species or system zebrafish
Method: as §1
Radioligand studies with COS-7 cells expressing either zPTH1R or zPTH3R were performed as described using either ^125I-labeled [Nle^8,21,Tyr^34]rPTH-(1–34)amide (rPTH) (SEQ ID NO:22) or ^125I-labeled [Tyr^36]hPTHrP-(1–36)amide (PTHrP) (SEQ ID NO:23), and increasing concentrations of either [Tyr^34]hPTH(1–34)amide (PTH) (SEQ ID NO:24), or [Tyr36]hPTHrP(1–36)amide (PTHrP) (SEQ ID NO:25) (Bergwitz et al., (1997)). […] Specific binding was calculated by subtracting radioligand binding in the presence of excess unlabeled peptide from the total binding. […]
Competitive binding and cAMP stimulation assays were performed at room temperature with intact COS-7 cells that expressed either the zPTH1R or the zPTH3R, as described in Materials and Methods. […] EC50 and IC50 values were determined as previously described (Gardella et al., 1996). […] ND, not determined.

[6] = zPPR3, intact COS-7 cells, room temperature

zPTH1R, sequence (as listed by the source): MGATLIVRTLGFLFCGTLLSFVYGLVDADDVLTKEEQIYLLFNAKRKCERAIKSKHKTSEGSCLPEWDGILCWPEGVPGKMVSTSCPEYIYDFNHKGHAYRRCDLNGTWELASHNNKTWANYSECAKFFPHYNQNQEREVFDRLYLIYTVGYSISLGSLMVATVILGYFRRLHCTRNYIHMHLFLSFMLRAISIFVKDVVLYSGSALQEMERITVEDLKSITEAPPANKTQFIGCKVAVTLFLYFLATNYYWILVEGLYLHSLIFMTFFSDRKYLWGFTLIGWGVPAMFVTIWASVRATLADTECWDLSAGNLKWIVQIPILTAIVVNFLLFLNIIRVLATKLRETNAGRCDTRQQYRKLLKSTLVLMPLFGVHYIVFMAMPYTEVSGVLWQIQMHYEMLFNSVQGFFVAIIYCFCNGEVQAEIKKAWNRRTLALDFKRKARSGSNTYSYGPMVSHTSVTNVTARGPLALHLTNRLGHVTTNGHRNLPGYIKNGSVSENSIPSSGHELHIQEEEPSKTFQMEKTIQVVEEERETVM
zPTH3R, sequence (as listed by the source): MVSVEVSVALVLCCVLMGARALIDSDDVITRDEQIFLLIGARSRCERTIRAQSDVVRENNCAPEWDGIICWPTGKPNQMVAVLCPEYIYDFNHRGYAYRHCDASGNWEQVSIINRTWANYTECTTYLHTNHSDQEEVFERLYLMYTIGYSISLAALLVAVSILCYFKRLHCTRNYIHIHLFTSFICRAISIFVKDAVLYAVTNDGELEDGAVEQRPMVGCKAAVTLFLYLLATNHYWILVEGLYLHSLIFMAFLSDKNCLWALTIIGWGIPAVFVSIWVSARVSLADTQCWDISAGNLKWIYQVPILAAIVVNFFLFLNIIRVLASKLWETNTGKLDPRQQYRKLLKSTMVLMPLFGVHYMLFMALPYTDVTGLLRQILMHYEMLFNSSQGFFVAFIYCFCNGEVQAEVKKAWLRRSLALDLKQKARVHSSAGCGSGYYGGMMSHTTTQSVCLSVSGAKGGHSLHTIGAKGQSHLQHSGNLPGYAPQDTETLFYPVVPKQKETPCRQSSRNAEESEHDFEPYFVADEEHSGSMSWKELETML

| Substance | cAMP Maximum ([1]; zPPR1#25) | EC50 ([1]; zPPR1#29) | cAMP Maximum ([1]; zPPR1#29) | maximal cAMP accumulation ([1]; zPTH1R#25, COS-7 cells) | maximal cAMP accumulation ([1]; zPTH1R#29, COS-7 cells) | increase of IP accumulation [2] | IP accumulation [3] | EC50 [4, 6] | maximal cAMP accumulation [4, 6] | maximal cAMP accumulation ([4]; zPTH3R, COS-7 cells) | EC50 ([1]; zPPR1#25) | IC50 [5, 6] | Kd ([5]; zPTH3R, COS-7 cells, read-out: apparent Kd) | cAMP activation at low concentration ([4]; zPTH3R, COS-7 cells, 10^−11 M) |
| --- | --- | --- | --- | --- | --- | --- | --- | --- | --- | --- | --- | --- | --- | --- |
| AVAEIQLMHNLGKHLNSMERVEWLRKKLQDVHDY [hPTH, [Tyr^34]hPTH(1–34)amide] | 90.4 ± 11.4 pmol/well | 0.8 ± 0.03 nM | 106.2 ± 4.8 pmol/well | 90.4 pmole/well | 106.2 pmole/well | 2 fold | no IP accumulation was detectable | 5.98 ± 0.24 nM | 227.4 ± 41.6 pmol/well | 285 pmol/well | – | – | – | – |
| [Tyr36]hPTHrP(1–36)amide | 92.4 ± 8.00 pmol/well | 0.3 ± 0.04 nM | 101.6 ± 3.6 pmol/well | 92.4 pmole/well | 101.6 pmole/well | 2 fold | no IP accumulation was detectable | 0.49 ± 0.17 nM | 285.4 ± 3.4 pmol/well | 227 pmol/well | 0.9 ± 0.09 nM | ~3 nM | ~3 nM | significant activation |
